# Experimental data taken from ChEMBL document CHEMBL4033793, “Potent and Selective Inhibitors of Human Sirtuin 5” (J Med Chem, 2018).
# Residues, ends and D or L forms follow the SMILES beside them. *: point of attachment. X71 = O=C(O)[C@@H](CC(=O)*)SCc1cccc(C(F)(F)F)c1; X49 = O=C(O)[C@H](CC(=O)*)SCc1cccc(C(F)(F)F)c1; X18 = O=C(O)[C@@H](CC(=O)*)Sc1c(Cl)cccc1Cl; X3 = O=C(O)[C@H](CC(=O)*)Sc1ccc(Cl)c(Cl)c1; X55 = O=C(O)[C@@H](CC(=O)*)Sc1ccc(Cl)cc1Cl; X38 = O=C(O)[C@H](CC(=O)*)Sc1cccc2ccccc12; X43 = O=C(O)[C@H](CC(=O)*)Sc1ccc(Cl)cc1Cl; X64 = O=C(O)[C@H](CC(=O)*)Sc1c(Cl)cccc1Cl; X66 = COc1ccc(CS[C@@H](CC(=O)*)C(=O)O)cc1; X33 = Cc1ccc(S[C@@H](CC(=O)*)C(=O)O)cc1C; X53 = O=C(O)[C@H](CC(=O)*)Sc1ccccc1Cl; X40 = O=C(O)[C@H](CC(=O)*)SCc1ccccc1; X12 = O=C(O)C(CC(=O)*)SCCc1cnccn1; X7 = O=C(O)C(CC(=O)*)SCCc1ccncc1; Bz = O=C(c1ccccc1)*
# Target: NAD-dependent protein deacylase sirtuin-5, mitochondrial (Homo sapiens, UniProt Q9NXA8)
# Sequence (Q9NXA8 whole entry): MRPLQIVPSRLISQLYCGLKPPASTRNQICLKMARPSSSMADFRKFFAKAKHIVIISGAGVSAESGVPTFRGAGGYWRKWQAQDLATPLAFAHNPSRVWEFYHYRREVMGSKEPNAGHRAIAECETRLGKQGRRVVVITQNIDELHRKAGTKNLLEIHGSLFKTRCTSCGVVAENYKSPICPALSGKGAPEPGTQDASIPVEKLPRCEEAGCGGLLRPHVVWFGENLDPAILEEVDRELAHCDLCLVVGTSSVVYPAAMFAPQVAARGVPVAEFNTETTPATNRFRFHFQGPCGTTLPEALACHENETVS
# Assay: Inhibition of human recombinant N-terminal Strep2-tagged SIRT5 expressed in Escherichia coli BL21 (DE3) using Abz-GVLK(glutaryl)AY(NO2)GV-NH2 as substrate in presence of NAD+ by fluorescence assay
IC50 [nM],Ki [nM],Compound
1050,,COc1ccc(CS[C@@H](CC(=O)NCCCC[C@H](NC(=O)[C@H](CC(C)C)NC(=O)[C@@H](NC(=O)CNC(=O)c2ccccc2)C(C)C)C(=O)N[C@@H](CCC(=O)O)C(=O)N[C@@H](Cc2ccc(O)cc2)C(=O)NCC(=O)N[C@H](C(N)=O)C(C)C)C(=O)O)cc1 (Bz-GVLK(X66)EYGV-NH2)
46.1,,Cc1ccc(S[C@@H](CC(=O)NCCCC[C@H](NC(=O)[C@H](CC(C)C)NC(=O)[C@@H](NC(=O)CNC(=O)c2ccccc2)C(C)C)C(=O)N[C@@H](CCC(=O)O)C(=O)N[C@@H](Cc2ccc(O)cc2)C(=O)NCC(=O)N[C@H](C(N)=O)C(C)C)C(=O)O)cc1C (Bz-GVLK(X33)EYGV-NH2)
1120,,CC(C)C[C@H](NC(=O)[C@@H](NC(=O)CNC(=O)c1ccccc1)C(C)C)C(=O)N[C@@H](CCCCNC(=O)C[C@H](SCc1cccc(C(F)(F)F)c1)C(=O)O)C(=O)N[C@@H](CCC(=O)O)C(=O)N[C@@H](Cc1ccc(O)cc1)C(=O)NCC(=O)N[C@H](C(N)=O)C(C)C (Bz-GVLK(X49)EYGV-NH2)
72600,,O=C(C[C@H](Sc1ccc2ccccc2c1)C(=O)O)NCCCc1ccccc1
1080,,CC(=O)N[C@@H](CC(C)C)C(=O)N[C@@H](CCCCNC(=O)CC(Sc1ccc2ccccc2c1)C(=O)O)C(=O)N[C@@H](C)C(N)=O (stereo partly drawn)
177,,CC(C)C[C@H](NC(=O)[C@@H](NC(=O)CNC(=O)c1ccccc1)C(C)C)C(=O)N[C@@H](CCCCNC(=O)C[C@H](Sc1ccc(Cl)cc1Cl)C(=O)O)C(=O)N[C@@H](CCC(=O)O)C(=O)N[C@@H](Cc1ccc(O)cc1)C(=O)NCC(=O)N[C@H](C(N)=O)C(C)C (Bz-GVLK(X43)EYGV-NH2)
336,,CC(C)C[C@H](NC(=O)[C@@H](NC(=O)CNC(=O)c1ccccc1)C(C)C)C(=O)N[C@@H](CCCCNC(=O)C[C@H](SCc1ccccc1)C(=O)O)C(=O)N[C@@H](CCC(=O)O)C(=O)N[C@@H](Cc1ccc(O)cc1)C(=O)NCC(=O)N[C@H](C(N)=O)C(C)C (Bz-GVLK(X40)EYGV-NH2)
857,,CC(C)C[C@H](NC(=O)[C@@H](NC(=O)CNC(=O)c1ccccc1)C(C)C)C(=O)N[C@@H](CCCCNC(=O)C[C@H](Sc1ccccc1Cl)C(=O)O)C(=O)N[C@@H](CCC(=O)O)C(=O)N[C@@H](Cc1ccc(O)cc1)C(=O)NCC(=O)N[C@H](C(N)=O)C(C)C (Bz-GVLK(X53)EYGV-NH2)
12500,,CC(C)C[C@H](NC(=O)[C@@H](NC(=O)CNC(=O)c1ccccc1)C(C)C)C(=O)N[C@@H](CCCCNC(=O)C[C@@H](Sc1c(Cl)cccc1Cl)C(=O)O)C(=O)N[C@@H](CCC(=O)O)C(=O)N[C@@H](Cc1ccc(O)cc1)C(=O)NCC(=O)N[C@H](C(N)=O)C(C)C (Bz-GVLK(X18)EYGV-NH2)
13200,,CC(C)C[C@H](NC(=O)[C@@H](NC(=O)CNC(=O)c1ccccc1)C(C)C)C(=O)N[C@@H](CCCCNC(=O)CC(SCCc1ccncc1)C(=O)O)C(=O)N[C@@H](CCC(=O)O)C(=O)N[C@@H](Cc1ccc(O)cc1)C(=O)NCC(=O)N[C@H](C(N)=O)C(C)C (stereo partly drawn) (Bz-GVLK(X7)EYGV-NH2)
95,,CC(C)C[C@H](NC(=O)[C@@H](NC(=O)CNC(=O)c1ccccc1)C(C)C)C(=O)N[C@@H](CCCCNC(=O)C[C@H](Sc1cccc2ccccc12)C(=O)O)C(=O)N[C@@H](CCC(=O)O)C(=O)N[C@@H](Cc1ccc(O)cc1)C(=O)NCC(=O)N[C@H](C(N)=O)C(C)C (Bz-GVLK(X38)EYGV-NH2)
45.9,23,CC(C)C[C@H](NC(=O)[C@@H](NC(=O)CNC(=O)c1ccccc1)C(C)C)C(=O)N[C@@H](CCCCNC(=O)C[C@H](Sc1ccc(Cl)c(Cl)c1)C(=O)O)C(=O)N[C@@H](CCC(=O)O)C(=O)N[C@@H](Cc1ccc(O)cc1)C(=O)NCC(=O)N[C@H](C(N)=O)C(C)C (Bz-GVLK(X3)EYGV-NH2)
577,,CC(C)C[C@H](NC(=O)[C@@H](NC(=O)CNC(=O)c1ccccc1)C(C)C)C(=O)N[C@@H](CCCCNC(=O)C[C@H](Sc1c(Cl)cccc1Cl)C(=O)O)C(=O)N[C@@H](CCC(=O)O)C(=O)N[C@@H](Cc1ccc(O)cc1)C(=O)NCC(=O)N[C@H](C(N)=O)C(C)C (Bz-GVLK(X64)EYGV-NH2)
2010,,CC(C)C[C@H](NC(=O)[C@@H](NC(=O)CNC(=O)c1ccccc1)C(C)C)C(=O)N[C@@H](CCCCNC(=O)C[C@@H](Sc1ccc(Cl)cc1Cl)C(=O)O)C(=O)N[C@@H](CCC(=O)O)C(=O)N[C@@H](Cc1ccc(O)cc1)C(=O)NCC(=O)N[C@H](C(N)=O)C(C)C (Bz-GVLK(X55)EYGV-NH2)
1150,,CC(C)C[C@H](NC(=O)[C@@H](NC(=O)CNC(=O)c1ccccc1)C(C)C)C(=O)N[C@@H](CCCCNC(=O)C[C@@H](SCc1cccc(C(F)(F)F)c1)C(=O)O)C(=O)N[C@@H](CCC(=O)O)C(=O)N[C@@H](Cc1ccc(O)cc1)C(=O)NCC(=O)N[C@H](C(N)=O)C(C)C (Bz-GVLK(X71)EYGV-NH2)
22800,3.5 to 11,CC(C)C[C@H](NC(=O)[C@@H](NC(=O)CNC(=O)c1ccccc1)C(C)C)C(=O)N[C@@H](CCCCNC(=O)CC(SCCc1cnccn1)C(=O)O)C(=O)N[C@@H](CCC(=O)O)C(=O)N[C@@H](Cc1ccc(O)cc1)C(=O)NCC(=O)N[C@H](C(N)=O)C(C)C (stereo partly drawn) (Bz-GVLK(X12)EYGV-NH2)
